Test results: patent US20250353891A1 (MEDIMMUNE LIMITED, priority 2022, published 2025)
Starred links: 1 amine or outer side, 2 acyl side, 3 side chain; linkers in the order of their positions; H or OH if unused. Non-standard residues stand in square brackets, D forms with d. Residues, ends and D or L forms follow the SMILES beside them. Groups on a side chain read outwards from the residue. *: point of attachment. C18 diacid = O=C(O)CCCCCCCCCCCCCCCCC(=O)*; γGlu = O=C(O)[C@H](CCC(=O)[*:2])N[*:1]; αMeF = C[C@](N)(Cc1ccccc1)C(=O)O; AEEA = NCCOCCOCC(=O)O; Aib = CC(C)(N)C(=O)O

How the values were obtained:
[1] = target: human GLP-1 receptor (hGLP-1R) (Homo sapiens, UniProt P43220); test: cAMP production (HTRF) in CHO cells expressing hGLP-1R; assay type: cell-based; set-up: expressed in transfected cells; details: for EC50: Table 6, peptides modified at position 17, cAMP in CHO hGLP-1R cells, geometric mean, read-out: hGLP-1R EC50; for % Relative Potency Ratio: Table 6, % GLP-1R activity relative to GLP-1 / % GlucR activity relative to glucagon
Sequence of human GLP-1 receptor (hGLP-1R) (P43220 24-463): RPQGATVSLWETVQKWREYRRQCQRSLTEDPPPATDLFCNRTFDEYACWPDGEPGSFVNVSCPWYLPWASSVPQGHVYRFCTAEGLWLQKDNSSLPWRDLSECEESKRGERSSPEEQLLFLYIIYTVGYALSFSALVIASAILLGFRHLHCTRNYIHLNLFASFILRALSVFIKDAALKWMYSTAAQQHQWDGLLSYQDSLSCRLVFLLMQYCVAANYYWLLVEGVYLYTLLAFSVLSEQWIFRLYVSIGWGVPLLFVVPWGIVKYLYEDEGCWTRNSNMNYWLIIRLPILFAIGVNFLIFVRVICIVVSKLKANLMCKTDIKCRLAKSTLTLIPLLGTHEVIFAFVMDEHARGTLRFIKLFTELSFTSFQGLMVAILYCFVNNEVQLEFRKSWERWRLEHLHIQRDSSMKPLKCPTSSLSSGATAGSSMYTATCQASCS
Outline: (§1)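 Potency values represent EC50 from 4-parameter logistic curves of HTRF % Delta F signal. Receptor-expressing CHO cells (hGCGR 2×10^5 cells/mL, hGLP-1R 1×10^5 cells/mL) were exposed for 30 min at room temperature before two-step cAMP detection.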

[2] = target: human glucagon receptor (hGCGR) (Homo sapiens, UniProt P47871); test: cAMP production (HTRF) in CHO cells expressing hGCGR; assay type: cell-based; set-up: expressed in transfected cells; details: Table 6, peptides modified at position 17; cAMP in CHO hGCGR cells; geometric mean; read-out: hGluc-R EC50
Sequence of human glucagon receptor (hGCGR) (P47871 26-477): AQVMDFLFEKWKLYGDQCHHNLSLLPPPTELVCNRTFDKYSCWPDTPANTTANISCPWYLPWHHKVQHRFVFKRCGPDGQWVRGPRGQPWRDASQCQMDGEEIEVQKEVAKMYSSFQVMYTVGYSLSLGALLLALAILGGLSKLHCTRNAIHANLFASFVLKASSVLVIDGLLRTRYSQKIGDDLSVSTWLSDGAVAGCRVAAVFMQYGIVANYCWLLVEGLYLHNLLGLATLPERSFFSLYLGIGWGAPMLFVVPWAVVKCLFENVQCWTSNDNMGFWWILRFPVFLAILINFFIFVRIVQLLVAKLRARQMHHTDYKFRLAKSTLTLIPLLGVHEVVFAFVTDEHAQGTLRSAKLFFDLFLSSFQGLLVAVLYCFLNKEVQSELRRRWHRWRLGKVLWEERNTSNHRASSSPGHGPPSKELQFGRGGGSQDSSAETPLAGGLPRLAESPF
Outline: as §1

| Structure (SMILES) | EC50 [1] [nM] | % Relative Potency Ratio [1] | EC50 [2] [nM] |
| --- | --- | --- | --- |
| CC(C)C[C@H](NC(=O)[C@H](Cc1c[nH]c2ccccc12)NC(=O)[C@H](C)NC(=O)[C@@H](NC(=O)[C@H](Cc1ccccc1)NC(=O)[C@H](CC(=O)O)NC(=O)[C@H](CCC(N)=O)NC(=O)[C@H](C)NC(=O)[C@H](CCCNC(=N)N)NC(=O)[C@H](CCCCNC(=O)COCCOCCNC(=O)COCCOCCNC(=O)CC[C@H](NC(=O)CCCCCCCCCCCCCCCCC(=O)O)C(=O)O)NC(=O)[C@H](CO)NC(=O)[C@H](CC(=O)O)NC(=O)[C@H](CC(C)C)NC(=O)[C@](C)(Cc1ccccc1)NC(=O)[C@H](CCCCN)NC(=O)[C@H](CO)NC(=O)[C@@H](NC(=O)[C@H](CC(=O)O)NC(=O)[C@H](CO)NC(=O)[C@@H](NC(=O)[C@H](Cc1ccccc1)NC(=O)[C@@H](NC(=O)CNC(=O)[C@H](CCC(N)=O)NC(=O)C(C)(C)NC(=O)[C@@H](N)Cc1c[nH]cn1)[C@@H](C)O)[C@@H](C)O)C(C)C)C(C)C)C(=O)N[C@@H](CC(C)C)C(=O)N[C@@H](CCC(=O)O)C(=O)NC(C)(C)C(=O)NCC(=O)O [Peptide 141] (H-H[Aib]QGTFTSDVSK[αMeF]LDSK([AEEA-AEEA-γGlu-C18 diacid])RAQDFVAWLLE[Aib]G-OH; N-terminus assumed) | 0.264 | 2.9 | 0.392 |
| CC(C)C[C@H](NC(=O)[C@H](Cc1c[nH]c2ccccc12)NC(=O)[C@H](C)NC(=O)[C@@H](NC(=O)[C@H](Cc1ccccc1)NC(=O)[C@H](CC(=O)O)NC(=O)[C@H](CCCNC(=N)N)NC(=O)[C@H](C)NC(=O)[C@H](CCCNC(=N)N)NC(=O)[C@H](CCCCNC(=O)COCCOCCNC(=O)COCCOCCNC(=O)CC[C@H](NC(=O)CCCCCCCCCCCCCCCCC(=O)O)C(=O)O)NC(=O)[C@H](CO)NC(=O)[C@H](CC(=O)O)NC(=O)[C@H](CC(C)C)NC(=O)[C@](C)(Cc1ccccc1)NC(=O)[C@H](CCCCN)NC(=O)[C@H](CO)NC(=O)[C@@H](NC(=O)[C@H](CC(=O)O)NC(=O)[C@H](CO)NC(=O)[C@@H](NC(=O)[C@H](Cc1ccccc1)NC(=O)[C@@H](NC(=O)CNC(=O)[C@H](CCC(N)=O)NC(=O)C(C)(C)NC(=O)[C@@H](N)Cc1c[nH]cn1)[C@@H](C)O)[C@@H](C)O)C(C)C)C(C)C)C(=O)N[C@@H](CC(C)C)C(=O)N[C@@H](CCC(=O)O)C(=O)NC(C)(C)C(=O)NCC(=O)O [Peptide 142] (H-H[Aib]QGTFTSDVSK[αMeF]LDSK([AEEA-AEEA-γGlu-C18 diacid])RARDFVAWLLE[Aib]G-OH; N-terminus assumed) | 0.0594 | 3.6 | 0.108 |
| CC(C)C[C@H](NC(=O)[C@H](Cc1c[nH]c2ccccc12)NC(=O)[C@H](CCC(N)=O)NC(=O)[C@@H](NC(=O)[C@H](Cc1ccccc1)NC(=O)[C@H](CC(=O)O)NC(=O)[C@H](CCCNC(=N)N)NC(=O)[C@H](C)NC(=O)[C@H](CCCNC(=N)N)NC(=O)[C@H](CCCCNC(=O)COCCOCCNC(=O)COCCOCCNC(=O)CC[C@H](NC(=O)CCCCCCCCCCCCCCCCC(=O)O)C(=O)O)NC(=O)[C@H](CO)NC(=O)[C@H](CC(=O)O)NC(=O)[C@H](CC(C)C)NC(=O)[C@](C)(Cc1ccccc1)NC(=O)[C@H](CCCCN)NC(=O)[C@H](CO)NC(=O)[C@@H](NC(=O)[C@H](CC(=O)O)NC(=O)[C@H](CO)NC(=O)[C@@H](NC(=O)[C@H](Cc1ccccc1)NC(=O)[C@@H](NC(=O)CNC(=O)[C@H](CCC(N)=O)NC(=O)C(C)(C)NC(=O)[C@@H](N)Cc1c[nH]cn1)[C@@H](C)O)[C@@H](C)O)C(C)C)C(C)C)C(=O)N[C@@H](CC(C)C)C(=O)N[C@@H](CCC(=O)O)C(=O)NC(C)(C)C(=O)NCC(=O)O [Peptide 143] (H-H[Aib]QGTFTSDVSK[αMeF]LDSK([AEEA-AEEA-γGlu-C18 diacid])RARDFVQWLLE[Aib]G-OH; N-terminus assumed) | 0.0191 | 3.4 | 0.0326 |
| CC[C@H](C)[C@H](NC(=O)CNC(=O)[C@H](CCCNC(=N)N)NC(=O)[C@H](CO)NC(=O)[C@H](C)NC(=O)[C@H](CC(C)C)NC(=O)[C@H](Cc1c[nH]c2ccccc12)NC(=O)[C@H](CCCNC(=N)N)NC(=O)[C@@H](NC(=O)[C@H](Cc1ccccc1)NC(=O)[C@H](CC(=O)O)NC(=O)[C@H](CCC(N)=O)NC(=O)[C@H](C)NC(=O)[C@H](CCCNC(=N)N)NC(=O)[C@H](CCCCNC(=O)COCCOCCNC(=O)COCCOCCNC(=O)CC[C@H](NC(=O)CCCCCCCCCCCCCCCCC(=O)O)C(=O)O)NC(=O)[C@H](CO)NC(=O)[C@H](CC(=O)O)NC(=O)[C@H](CC(C)C)NC(=O)[C@](C)(Cc1ccccc1)NC(=O)[C@H](CCCCN)NC(=O)[C@H](CO)NC(=O)[C@@H](NC(=O)[C@H](CC(=O)O)NC(=O)[C@H](CO)NC(=O)[C@@H](NC(=O)[C@H](Cc1ccccc1)NC(=O)[C@@H](NC(=O)CNC(=O)[C@H](CCC(N)=O)NC(=O)C(C)(C)NC(=O)[C@@H](N)Cc1c[nH]cn1)[C@@H](C)O)[C@@H](C)O)C(C)C)C(C)C)C(=O)O [Peptide 145] (H-H[Aib]QGTFTSDVSK[αMeF]LDSK([AEEA-AEEA-γGlu-C18 diacid])RAQDFVRWLASRGI-OH) | 0.0226 | 401.2 | 4.59 |
| CC(C)C[C@H](NC(=O)[C@H](Cc1c[nH]c2ccccc12)NC(=O)[C@H](CCCNC(=N)N)NC(=O)[C@@H](NC(=O)[C@H](Cc1ccccc1)NC(=O)[C@H](CC(=O)O)NC(=O)[C@H](CCC(N)=O)NC(=O)[C@H](C)NC(=O)[C@H](CCCNC(=N)N)NC(=O)[C@H](CCCCNC(=O)COCCOCCNC(=O)COCCOCCNC(=O)CC[C@H](NC(=O)CCCCCCCCCCCCCCCCC(=O)O)C(=O)O)NC(=O)[C@H](CO)NC(=O)[C@H](CC(=O)O)NC(=O)[C@H](CC(C)C)NC(=O)[C@](C)(Cc1ccccc1)NC(=O)[C@H](CCCCN)NC(=O)[C@H](CO)NC(=O)[C@@H](NC(=O)[C@H](CC(=O)O)NC(=O)[C@H](CO)NC(=O)[C@@H](NC(=O)[C@H](Cc1ccccc1)NC(=O)[C@@H](NC(=O)CNC(=O)[C@H](CCC(N)=O)NC(=O)C(C)(C)NC(=O)[C@@H](N)Cc1c[nH]cn1)[C@@H](C)O)[C@@H](C)O)C(C)C)C(C)C)C(=O)N[C@@H](C)C(=O)N[C@@H](CO)C(=O)N[C@@H](CCCNC(=N)N)C(=O)O [Peptide 146] (H-H[Aib]QGTFTSDVSK[αMeF]LDSK([AEEA-AEEA-γGlu-C18 diacid])RAQDFVRWLASR-OH; N-terminus assumed) | 0.0246 | 131.3 | 1.63 |
| CC(C)C[C@H](NC(=O)[C@H](Cc1c[nH]c2ccccc12)NC(=O)[C@H](CCCNC(=N)N)NC(=O)[C@@H](NC(=O)[C@H](Cc1ccccc1)NC(=O)[C@H](CC(=O)O)NC(=O)[C@H](CCC(N)=O)NC(=O)[C@H](C)NC(=O)[C@H](CCCNC(=N)N)NC(=O)[C@H](CCCCNC(=O)COCCOCCNC(=O)COCCOCCNC(=O)CC[C@H](NC(=O)CCCCCCCCCCCCCCCCC(=O)O)C(=O)O)NC(=O)[C@H](CO)NC(=O)[C@H](CC(=O)O)NC(=O)[C@H](CC(C)C)NC(=O)[C@](C)(Cc1ccccc1)NC(=O)[C@H](CCCCN)NC(=O)[C@H](CO)NC(=O)[C@@H](NC(=O)[C@H](CC(=O)O)NC(=O)[C@H](CO)NC(=O)[C@@H](NC(=O)[C@H](Cc1ccccc1)NC(=O)[C@@H](NC(=O)CNC(=O)[C@H](CCC(N)=O)NC(=O)C(C)(C)NC(=O)[C@@H](N)Cc1c[nH]cn1)[C@@H](C)O)[C@@H](C)O)C(C)C)C(C)C)C(=O)N[C@@H](CCC(=O)O)C(=O)N[C@@H](C)C(=O)NC(C)(C)C(=O)NCC(=O)O [Peptide 147] (H-H[Aib]QGTFTSDVSK[αMeF]LDSK([AEEA-AEEA-γGlu-C18 diacid])RAQDFVRWLEA[Aib]G-OH; N-terminus assumed) | 0.0153 | 5.6 | 0.0435 |
| CC[C@H](C)[C@H](NC(=O)[C@H](Cc1c[nH]c2ccccc12)NC(=O)[C@H](CCCNC(=N)N)NC(=O)[C@@H](NC(=O)[C@H](Cc1ccccc1)NC(=O)[C@H](CC(=O)O)NC(=O)[C@H](CCC(N)=O)NC(=O)[C@H](C)NC(=O)[C@H](CCCNC(=N)N)NC(=O)[C@H](CCCCNC(=O)COCCOCCNC(=O)COCCOCCNC(=O)CC[C@H](NC(=O)CCCCCCCCCCCCCCCCC(=O)O)C(=O)O)NC(=O)[C@H](CO)NC(=O)[C@H](CC(=O)O)NC(=O)[C@H](CC(C)C)NC(=O)[C@](C)(Cc1ccccc1)NC(=O)[C@H](CCCCN)NC(=O)[C@H](CO)NC(=O)[C@@H](NC(=O)[C@H](CC(=O)O)NC(=O)[C@H](CO)NC(=O)[C@@H](NC(=O)[C@H](Cc1ccccc1)NC(=O)[C@@H](NC(=O)CNC(=O)[C@H](CCC(N)=O)NC(=O)C(C)(C)NC(=O)[C@@H](N)Cc1c[nH]cn1)[C@@H](C)O)[C@@H](C)O)C(C)C)C(C)C)C(=O)N[C@@H](C)C(=O)N[C@@H](CCC(=O)O)C(=O)NC(C)(C)C(=O)NCC(=O)O [Peptide 148] (H-H[Aib]QGTFTSDVSK[αMeF]LDSK([AEEA-AEEA-γGlu-C18 diacid])RAQDFVRWIAE[Aib]G-OH; N-terminus assumed) | 0.0402 | 27.9 | 0.568 |
